Measured values as given in PubChem BioAssay AID248 (DTP/NCI, 2004).
Several values for one entry are separate records, joined by “and”; a condition that tells them apart may be missing. Equal values may be shown once. Inconclusive results and toxic doses are left out. Rule as the data show it: active = T/C of 150% or more; inactive = T/C below 125%. Square brackets hold non-standard residues; d marks the D form. Peptide text beside a SMILES is read from it. * marks the point of attachment. ξ: configuration not given here. Cbz = O=C(OCc1ccccc1)*; ξI = CCC(C)C(N)C(=O)O; OBn = c1ccc(CO*)cc1

System: L1210 leukemia ip in BDF1 mice, survival T/C
Test: NCI In Vivo Anticancer Drug Screen. Data for tumor model L1210 Leukemia (intraperitoneal) in B6D2F1 (BDF1) mice
Conditions: endpoint: mean survival time, higher = longer survival
Summary of the method: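 Tumor was transplanted into mice, which were then dosed with test compound or vehicle alone. Survival was recorded for each group, and the treated figure was expressed relative to the control figure.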

[1] = dose: 100.0 mg/kg/injection, schedule: Q04DX003 (ip), vehicle: saline with Tween-80
[2] = dose: 200.0 mg/kg/injection, schedule: Q04DX003 (ip), vehicle: saline with Tween-80
[3] = dose: 400.0 mg/kg/injection, schedule: Q04DX003 (ip), vehicle: saline with Tween-80
[4] = dose: 200.0 mg/kg/injection, schedule: Q04DX003 (ip), vehicle: Klucel (hydroxypropylcellulose) (HPC)
[5] = dose: 50.0 mg/kg/injection, schedule: Q01DX009 (ip), vehicle: saline
[6] = dose: 100.0 mg/kg/injection, schedule: Q01DX009 (ip), vehicle: saline
[7] = dose: 200.0 mg/kg/injection, schedule: Q01DX009 (ip), vehicle: saline
[8] = dose: 100.0 mg/kg/injection, schedule: Q04DX003 (ip), vehicle: saline
[9] = dose: 200.0 mg/kg/injection, schedule: Q04DX003 (ip), vehicle: saline
[10] = dose: 400.0 mg/kg/injection, schedule: Q04DX003 (ip), vehicle: saline
[11] = dose: 400.0 mg/kg/injection, schedule: Q01DX009 (ip), vehicle: saline

Measured: T/C

CCNC(=O)c1ccc2c(c1NCC)C(=O)c1ccccc1C2=O
inactive: dose: 75.0 mg/kg/injection, schedule: Q01DX001 (ip), vehicle: acetone 98 % of control | dose: 150.0 mg/kg/injection, schedule: Q01DX001 (ip), vehicle: acetone 104 % of control | dose: 300.0 mg/kg/injection, schedule: Q01DX001 (ip), vehicle: acetone 104 % of control

CCC(=O)Nc1cc(C)ccc1Cl
inactive: dose: 100.0 mg/kg/injection, schedule: Q01DX009 (ip), vehicle: Klucel (hydroxypropylcellulose) (HPC) 101 % of control | dose: 200.0 mg/kg/injection, schedule: Q01DX009 (ip), vehicle: Klucel (hydroxypropylcellulose) (HPC) 103 % of control | dose: 400.0 mg/kg/injection, schedule: Q01DX009 (ip), vehicle: Klucel (hydroxypropylcellulose) (HPC) 103 % of control

CN(CCC#N)c1ccc(/C=C(\C#N)C(N)=O)cc1
inactive: dose: 100.0 mg/kg/injection, schedule: Q01DX001 (ip), vehicle: saline with Tween-80 102 % of control | [1] 92 % of control and 93 % of control | dose: 200.0 mg/kg/injection, schedule: Q01DX001 (ip), vehicle: saline with Tween-80 102 % of control | [2] 100 % of control and 90 % of control | dose: 400.0 mg/kg/injection, schedule: Q01DX001 (ip), vehicle: saline with Tween-80 89 % of control | [3] 98 % of control and 90 % of control

CCC(C)C(NC(=O)CNC(=O)OCc1ccccc1)C(=O)OCc1ccccc1 (stereo not drawn) (Cbz-Gly-[ξI]-OBn)
inactive: dose: 100.0 mg/kg/injection, schedule: Q04DX003 (ip), vehicle: other 104 % of control | dose: 200.0 mg/kg/injection, schedule: Q04DX003 (ip), vehicle: other 98 % of control | dose: 400.0 mg/kg/injection, schedule: Q04DX003 (ip), vehicle: other 103 % of control

CCOC(=O)c1csc(/C=C/c2ccc([N+](=O)[O-])o2)n1
inactive: dose: 100.0 mg/kg/injection, schedule: Q04DX003 (ip), vehicle: Klucel (hydroxypropylcellulose) (HPC) 89 % of control | [4] 92 % of control

CC1Cc2c(cccc2[N+](=O)[O-])C1=O (stereo unspecified)
inactive: [1] 101 % of control | [2] 96 % of control | [3] 107 % of control

CSC(=S)N/N=C(\C)c1ccccn1
inactive: [1] 107 % of control

Cn1c2ccccc2c(=O)c2c(O)cc3c(c21)C=CC(C)(C)O3
inactive: dose: 50.0 mg/kg/injection, schedule: Q01DX001 (ip), vehicle: carboxymethylcellulose (CMC) 98 % of control | dose: 100.0 mg/kg/injection, schedule: Q01DX001 (ip), vehicle: carboxymethylcellulose (CMC) 90 % of control | dose: 200.0 mg/kg/injection, schedule: Q01DX001 (ip), vehicle: carboxymethylcellulose (CMC) 88 % of control | dose: 400.0 mg/kg/injection, schedule: Q01DX001 (ip), vehicle: carboxymethylcellulose (CMC) 88 % of control

CC(C)(C)NC(=O)Nc1nccs1
inactive: dose: 100.0 mg/kg/injection, schedule: Q01DX009 (ip), vehicle: other 100 % of control | dose: 200.0 mg/kg/injection, schedule: Q01DX009 (ip), vehicle: other 107 % of control

NOCc1c(F)c(F)c(F)c(F)c1F
inactive: dose: 100.0 mg/kg/injection, schedule: Q04DX003 (ip), vehicle: saline sonified 93 % of control | dose: 200.0 mg/kg/injection, schedule: Q04DX003 (ip), vehicle: saline sonified 104 % of control

CCCCOC(=O)C(C)OC(=O)Nc1ccccc1 (stereo unspecified)
inactive: dose: 100.0 mg/kg/injection, schedule: Q01DX009 (sc), vehicle: olive oil, sesame oil, peanut oil 95 % of control | dose: 100.0 mg/kg/injection, schedule: Q04DX003 (sc), vehicle: olive oil, sesame oil, peanut oil 100 % of control | dose: 200.0 mg/kg/injection, schedule: Q01DX009 (sc), vehicle: olive oil, sesame oil, peanut oil 92 % of control | dose: 200.0 mg/kg/injection, schedule: Q04DX003 (sc), vehicle: olive oil, sesame oil, peanut oil 105 % of control | dose: 400.0 mg/kg/injection, schedule: Q01DX009 (sc), vehicle: olive oil, sesame oil, peanut oil 92 % of control | dose: 400.0 mg/kg/injection, schedule: Q04DX003 (sc), vehicle: olive oil, sesame oil, peanut oil 115 % of control

NC(=O)OCCCc1ccccc1
inactive: dose: 12.5 mg/kg/injection, schedule: Q01DX009 (ip), vehicle: saline 112 % of control | dose: 25.0 mg/kg/injection, schedule: Q01DX009 (ip), vehicle: saline 105 % of control | dose: 25.0 mg/kg/injection, schedule: Q04DX003 (ip), vehicle: Klucel (hydroxypropylcellulose) (HPC) 101 % of control | [5] 103 % of control | dose: 50.0 mg/kg/injection, schedule: Q04DX003 (ip), vehicle: Klucel (hydroxypropylcellulose) (HPC) 104 % of control | [6] 112 % of control | [7] 105 % of control | [4] 98 % of control

CC1=CC(=O)C(C(C)C)C1 (stereo unspecified)
inactive: dose: 100.0 mg/kg/injection, schedule: Q01DX001 (ip), vehicle: other 98 % of control | dose: 200.0 mg/kg/injection, schedule: Q01DX001 (ip), vehicle: other 109 % of control | dose: 400.0 mg/kg/injection, schedule: Q01DX001 (ip), vehicle: other 95 % of control

[CH3][Sb]1([CH3])([I])[CH2]CC[CH2]1
inactive: [8] 101 % of control | [9] 97 % of control | [10] 101 % of control

OC1COCOC1 (tested in a mixture with another compound)
inactive: [6] 104 % of control | [8] 105 % of control | [7] 104 % of control | [9] 102 % of control | [11] 111 % of control | [10] 109 % of control

CSc1nn(C)c2cc(C)c3ccccc3[n+]12
inactive: dose: 5.0 mg/kg/injection, schedule: Q01DX001 (ip), vehicle: saline 108 % of control | dose: 10.0 mg/kg/injection, schedule: Q01DX001 (ip), vehicle: saline 106 % of control | dose: 20.0 mg/kg/injection, schedule: Q01DX001 (ip), vehicle: saline 103 % of control | dose: 40.0 mg/kg/injection, schedule: Q01DX001 (ip), vehicle: saline 100 % of control

CN1CC(=O)NC1=O
inactive: dose: 250.0 mg/kg/injection, schedule: Q01DX Z (ip), vehicle: saline 94 % of control | dose: 500.0 mg/kg/injection, schedule: Q01DX Z (ip), vehicle: saline 97 % of control | dose: 1000.0 mg/kg/injection, schedule: Q01DX Z (ip), vehicle: saline 96 % of control

CCCCCCCCCCCCOCCOCCOCC(N)=O
inactive: [6] 104 % of control | [8] 97 % of control | [7] 100 % of control | [9] 109 % of control | [11] 96 % of control | [10] 97 % of control

CC(=O)CCC(=O)OCCCl
inactive: [5] 102 % of control | [6] 101 % of control | [7] 101 % of control

CN1COc2c(n(C)c(=O)[nH]c2=O)C1
inactive: dose: 50.0 mg/kg/injection, schedule: Q01DX001 (ip), vehicle: saline 97 % of control | dose: 100.0 mg/kg/injection, schedule: Q01DX001 (ip), vehicle: saline 103 % of control | dose: 200.0 mg/kg/injection, schedule: Q01DX001 (ip), vehicle: saline 89 % of control | dose: 400.0 mg/kg/injection, schedule: Q01DX001 (ip), vehicle: saline 101 % of control

O=C1C2CCC(C2)C1C(O)(C(F)(F)F)C(F)(F)F (stereo unspecified)
inactive: dose: 25.0 mg/kg/injection, schedule: Q01DX009 (ip), vehicle: saline with Tween-80 101 % of control | dose: 50.0 mg/kg/injection, schedule: Q01DX009 (ip), vehicle: saline with Tween-80 100 % of control | dose: 50.0 mg/kg/injection, schedule: Q04DX003 (ip), vehicle: saline with Tween-80 101 % of control | dose: 100.0 mg/kg/injection, schedule: Q01DX009 (ip), vehicle: saline with Tween-80 91 % of control | [1] 98 % of control | [2] 91 % of control
